Test system: MIA PaCa-2
Procedure: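 MIA PaCa-2 Tet-on shOFD1 pancreatic cancer cells (2000 cells/well, 96-well) were treated with Selleck FDA-approved library compounds at 0, 1, 5, 10, 25 and 50 µM, with extra concentrations added where needed, for 72 h at 37 °C. Knockdown wells also received 100 ng/mL doxycycline; control wells received DMSO without doxycycline. Viability was read by CCK-8 absorbance at 450 nm and normalised to DMSO control wells. IC50 was fitted in GraphPad Prism as a 4-parameter logistic with bottom fixed at 0 and top fixed at 1; at least 3 technical replicate wells per condition.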

[1] = OFD1 knockdown: no (no doxycycline)
[2] = OFD1 knockdown: yes (Tet-on shOFD1, 100 ng/mL doxycycline)

IC50 cell viability [1] [µM]	IC50 cell viability [2] [µM]	SMILES
4.04	3.46	CC(C)(C)Cn1c(N)nc2ccc(-c3[nH]c(C(C)(C)C)nc3-c3ccc(F)cc3)nc21 [S1494]
11.9	11.5	COc1c(C)c2c(c(O)c1C/C=C(\C)CCC(=O)OCCN1CCOCC1)C(=O)OC2 [S1501]
21.9	21.6	Cc1ccc([C@@H]2O[C@H](CO)[C@@H](O)[C@H](O)[C@H]2O)cc1Cc1ccc(-c2ccc(F)cc2)s1 [S2760]
13.2	12.9	CC1(COc2ccc3c(c2)ncn3-c2ccc3cccc(N4CCC(N)CC4)c3n2)COC1 [S2730]
44	42.9	Nc1cccc2c1CN(C1CCC(=O)NC1=O)C2=O (stereo not drawn) [S1029]
46.5	45.7	C=C1/C(=C\C=C2/CCC[C@]3(C)[C@@H]([C@H](C)/C=C/[C@H](C)C(C)C)CC[C@@H]23)C[C@@H](O)C[C@@H]1O [S1467]
17	17.6	CCCS(=O)(=O)Nc1ccc(F)c(C(=O)c2c[nH]c3ncc(-c4ccc(Cl)cc4)cc23)c1F [S1267]
27	23.9	Nc1nc(CC(=O)Nc2ccc(CCNC[C@H](O)c3ccccc3)cc2)cs1 [S4009]
13.6	14.3	CC1=C(/C=C/C(C)=C/C=C/C(C)=C/C(=O)O)C(C)(C)CCC1 [S1653]
16.5	17	CCOc1ccc(Cc2cc([C@@H]3O[C@H](CO)[C@@H](O)[C@H](O)[C@H]3O)ccc2Cl)cc1 [S1548]
3.57	3.44	CCN(CC)C(=O)/C(C#N)=C/c1cc(O)c(O)c([N+](=O)[O-])c1 [S3147]
6.98	6.56	Cc1ccc(NC(=O)c2ccc(CN3CCN(C)CC3)cc2)cc1Nc1nccc(-c2cccnc2)n1 [S2475]
8.82	8.26	O=C1CN2Cc3c(ccc(Cl)c3Cl)N=C2N1 [S3172]
3.33	3.62	O=C1[C@H](CC[C@H](O)c2ccc(F)cc2)[C@@H](c2ccc(O)cc2)N1c1ccc(F)cc1 [S1655]
57.9	53.4	C[C@]12CCC(=O)C=C1CC[C@@H]1[C@@H]2[C@@H](O)C[C@@]2(C)[C@H]1CC[C@]2(O)C(=O)CO [S1696]
8.52	7.75	C[C@@H]1C[C@H]2[C@@H]3CCC4=CC(=O)C=C[C@]4(C)[C@@]3(F)[C@@H](O)C[C@]2(C)[C@@]1(O)C(=O)CO [S1322]
12.2	11.5	CC1=C(/C=C/C(C)=C/C=C/C(C)=C\C(=O)O)C(C)(C)CCC1 [S1379]
2.85	2.98	CCN(CC)CCNC(=O)c1c(C)[nH]c(/C=C2\C(=O)Nc3ccc(F)cc32)c1C [S1042]
16.7	15.1	CCN(CCO)CCCOc1ccc2c(Nc3cc(CC(=O)Nc4cccc(F)c4)[nH]n3)ncnc2c1 [S1147]

IC50 cell viability [1] [µM]	IC50 cell viability [2] [µM]	SMILES
22	20	O=C(Nc1c(Cl)cncc1Cl)c1ccc(OC(F)F)c(OCC2CC2)c1 [S2131]
5.87	5.04	COc1cc2/c(=N/c3ccc(Br)cc3F)nc[nH]c2cc1OCC1CCN(C)CC1 [S1046]
10.2	9.8	Cc1ccc(O)c([C@H](CCN(C(C)C)C(C)C)c2ccccc2)c1 [S2550]
9.12	8.03	CS(=O)(=O)CCNCc1ccc(-c2ccc3ncnc(Nc4ccc(OCc5cccc(F)c5)c(Cl)c4)c3c2)o1 [S2111]
0.47	0.39	CN(Cc1cnc2nc(N)nc(N)c2n1)c1ccc(C(=O)N[C@@H](CCC(=O)O)C(=O)O)cc1 [S1210]
22.1	20.1	CN1CCN(c2nc(C3=C(c4c[nH]c5ccccc45)C(=O)NC3=O)c3ccccc3n2)CC1 [S2791]
2.42	2.01	CC(C)c1cc(-c2n[nH]c(=O)n2-c2ccc3c(ccn3C)c2)c(O)cc1O [S1159]
2.22	1.71	COc1cc2ncnc(Nc3ccc(F)c(Cl)c3)c2cc1OCCCN1CCOCC1 [S1025]
8.13	7.35	CC(C)n1c(/C=C/C(O)CC(O)CC(=O)O)c(-c2ccc(F)cc2)c2ccccc21 (stereo not drawn) [S1909]
6.31	6.07	COc1cc(Nc2c(C#N)cnc3cc(OCCCN4CCN(C)CC4)c(OC)cc23)c(Cl)cc1Cl [S1014]
2.38	2.28	C[C@]12C=CC(=O)N[C@@H]1CC[C@@H]1[C@@H]2CC[C@]2(C)[C@@H](C(=O)Nc3cc(C(F)(F)F)ccc3C(F)(F)F)CC[C@@H]12 [S1202]
19.7	21.3	C=C(c1ccc(C(=O)O)cc1)c1cc2c(cc1C)C(C)(C)CCC2(C)C [S2098]
1.66	1.5	COc1nc(N)nc2c1ncn2[C@@H]1O[C@H](CO)[C@@H](O)[C@@H]1O [S1213]
14.5	13.5	Cc1cnc(Nc2ccc(OCCN3CCCC3)cc2)nc1Nc1cccc(S(=O)(=O)NC(C)(C)C)c1 [S2736]
26.3	28.8	COc1ccc(-c2nc3cc(C4=NNC(=O)CC4C)ccc3[nH]2)cc1 (stereo not drawn) [S1550]
13.1	12.1	CC1(C)CCC(CN2CCN(c3ccc(C(=O)NS(=O)(=O)c4ccc(NCC5CCOCC5)c([N+](=O)[O-])c4)c(Oc4cnc5[nH]ccc5c4)c3)CC2)=C(c2ccc(Cl)cc2)C1 [S8048]
0.55	0.53	Nc1nc(Cl)nc2c1ncn2[C@@H]1O[C@H](CO)[C@@H](O)[C@@H]1F [S1218]
51.2	49.6	CC(=O)OCC(=O)[C@@]1(O)[C@H](C)C[C@H]2[C@@H]3CCC4=CC(=O)C=C[C@]4(C)[C@@]3(F)[C@@H](O)C[C@@]21C [S3124]
18.8	16.9	O=NN(CCCl)C(=O)NC1CCCCC1 [S1840]

IC50 cell viability [1] [µM]	IC50 cell viability [2] [µM]	SMILES
2.26	1.95	Nc1nc(F)nc2c1ncn2[C@@H]1O[C@H](COP(=O)(O)O)[C@@H](O)[C@@H]1O [S1229]
68.8	66.2	Cc1ccc(NC(=O)c2ccc(CN3CCN(C)CC3)cc2)cc1Nc1nc(-c2cccnc2)cs1 [S1064]
2.71	2.5	CC(C)C(=O)Nc1ccc([N+](=O)[O-])c(C(F)(F)F)c1 [S1908]
2.19	2.38	C[C@@H]1CCN(C(=O)CC#N)C[C@@H]1N(C)c1ncnc2[nH]ccc12 [S2789]
2.01	1.81	CC(=O)O[C@]1(C(C)=O)CC[C@H]2[C@@H]3C=C(C)C4=CC(=O)CC[C@]4(C)[C@H]3CC[C@@]21C [S1304]
19	17.7	Cc1c(C(=O)NN2CCCCC2)nn(-c2ccc(Cl)cc2Cl)c1-c1ccc(Cl)cc1 [S3021]
21.9	21.2	N[C@@H](CC(=O)N1CCn2c(nnc2C(F)(F)F)C1)Cc1cc(F)c(F)cc1F [S4002]
12.4	12.3	Cc1nc(-c2ccc(OCC(C)C)c(C#N)c2)sc1C(=O)O [S1547]
21.9	20.3	CC[C@H](NC(=O)[C@H](C)NC)C(=O)N1C[C@@H](O)C[C@H]1Cc1c(-c2[nH]c3cc(F)ccc3c2C[C@@H]2C[C@H](O)CN2C(=O)[C@H](CC)NC(=O)[C@H](C)NC)[nH]c2cc(F)ccc12 [S7015]
38.1	37.8	C[C@]12CC[C@@H]3c4ccc(O)cc4CC[C@H]3[C@@H]1CCC2=O [S1665]
18.9	18	CN1CCN(C2=Nc3cc(Cl)ccc3Nc3ccccc32)CC1 [S2459]
4.41	4.33	NC(=O)NO [S1896]
1.07	0.75	C=CCNC1=C2C[C@@H](C)C[C@H](OC)[C@H](O)[C@@H](C)/C=C(\C)[C@H](OC(N)=O)[C@@H](OC)/C=C\C=C(/C)C(=O)NC(=CC1=O)C2=O [S1141]
7.47	5.94	Cc1cc(C)c2c(c1)[C@@H](N(Cc1cc(C(F)(F)F)cc(C(F)(F)F)c1)c1nnn(C)n1)CCCN2C[C@H]1CC[C@H](C(=O)O)CC1 [S2925]
59	54.2	Nc1nc(F)nc2c1ncn2[C@@H]1O[C@H](CO)[C@@H](O)[C@@H]1O [S1491]
11	11.2	Nc1ccccc1NC(=O)c1ccc(CNC(=O)OCc2cccnc2)cc1 [S1053]
18.1	17.6	COc1cc2nc(N3CCN(C(=O)C4COc5ccccc5O4)CC3)nc(N)c2cc1OC (stereo not drawn) [S1324]
15	14.8	Cc1ccc(NC(=O)c2ccc(CN3CCN(C)CC3)cc2)cc1Nc1nccc(-c2cccnc2)n1 [S1026]
12.6	10.7	Nc1ncn([C@@H]2O[C@H](CO)[C@@H](O)[C@H]2O)c(=O)n1 [S1782]

SMILES	IC50 cell viability [1] [µM]	IC50 cell viability [2] [µM]
Cn1cc(C2=C(c3cn(C4CCN(Cc5ccccn5)CC4)c4ccccc34)C(=O)NC2=O)c2ccccc21 [S1055]	13.8	12.5
Cc1c(N)nc(C(CC(N)=O)NCC(N)C(N)=O)nc1C(=O)NC(C(=O)NC(C)C(O)C(C)C(=O)NC(C(=O)NCCc1nc(-c2nc(C(=O)NCCC[S+](C)C)cs2)cs1)C(C)O)C(O[C@@H]1O[C@@H](CO)[C@@H](O)[C@H](O)[C@@H]1O[C@H]1O[C@H](CO)[C@@H](O)[C@H](OC(N)=O)[C@@H]1O)c1cnc[nH]1 (stereo partly drawn) [S1214]	1.84	1.69

Reference: the supplement of paper PMC12325586
